32 molecules from US20120101100A1 (priority 2008, published 2012) can be followed below.

S. aureus GyrB ATPase, sequence (P0A0K8 whole entry): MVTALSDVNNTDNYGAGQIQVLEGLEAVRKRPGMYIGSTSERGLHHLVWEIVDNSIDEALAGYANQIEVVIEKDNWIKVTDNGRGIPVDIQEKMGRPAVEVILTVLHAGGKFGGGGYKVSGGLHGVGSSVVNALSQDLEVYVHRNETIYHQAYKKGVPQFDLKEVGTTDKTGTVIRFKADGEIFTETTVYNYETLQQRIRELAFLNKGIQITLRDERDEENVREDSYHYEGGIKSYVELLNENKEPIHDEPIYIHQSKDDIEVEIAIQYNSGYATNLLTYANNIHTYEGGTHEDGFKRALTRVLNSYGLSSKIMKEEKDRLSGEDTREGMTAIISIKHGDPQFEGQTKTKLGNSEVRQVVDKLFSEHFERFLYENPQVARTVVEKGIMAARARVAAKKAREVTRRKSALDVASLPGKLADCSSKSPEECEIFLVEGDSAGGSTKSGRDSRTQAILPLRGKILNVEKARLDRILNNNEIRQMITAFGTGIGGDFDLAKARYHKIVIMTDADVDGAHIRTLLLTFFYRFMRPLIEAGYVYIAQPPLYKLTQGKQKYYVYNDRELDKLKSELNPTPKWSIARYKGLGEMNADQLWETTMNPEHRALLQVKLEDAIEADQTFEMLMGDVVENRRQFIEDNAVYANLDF
S. aureus GyrB ATPase, sequence (P0AES4 whole entry, further chain): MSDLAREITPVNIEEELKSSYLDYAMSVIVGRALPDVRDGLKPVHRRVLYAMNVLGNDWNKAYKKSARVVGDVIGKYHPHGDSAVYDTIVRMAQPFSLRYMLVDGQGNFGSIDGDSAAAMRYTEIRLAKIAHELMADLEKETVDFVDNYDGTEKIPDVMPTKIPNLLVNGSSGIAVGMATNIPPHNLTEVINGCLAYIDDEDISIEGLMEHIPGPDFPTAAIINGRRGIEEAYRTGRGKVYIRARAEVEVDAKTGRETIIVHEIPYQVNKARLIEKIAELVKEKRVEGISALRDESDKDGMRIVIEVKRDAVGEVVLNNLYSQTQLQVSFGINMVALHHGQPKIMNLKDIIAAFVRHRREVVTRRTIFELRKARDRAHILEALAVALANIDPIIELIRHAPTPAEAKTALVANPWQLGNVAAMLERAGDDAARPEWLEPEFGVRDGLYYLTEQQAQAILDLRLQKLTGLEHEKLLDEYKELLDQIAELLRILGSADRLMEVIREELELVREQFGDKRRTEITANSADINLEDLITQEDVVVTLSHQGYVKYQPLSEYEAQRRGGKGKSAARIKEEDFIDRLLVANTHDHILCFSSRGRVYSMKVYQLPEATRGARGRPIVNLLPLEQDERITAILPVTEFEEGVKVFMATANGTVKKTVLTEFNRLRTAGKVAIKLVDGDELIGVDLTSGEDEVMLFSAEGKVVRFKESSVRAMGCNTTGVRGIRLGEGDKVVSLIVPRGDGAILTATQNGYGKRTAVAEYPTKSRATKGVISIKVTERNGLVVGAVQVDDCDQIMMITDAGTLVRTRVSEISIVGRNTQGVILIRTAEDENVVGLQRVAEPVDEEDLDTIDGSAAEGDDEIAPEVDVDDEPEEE

The first test addresses S. aureus GyrB ATPase (Staphylococcus aureus, UniProt P0A0K8). As to the kind of experiment: S. aureus (SAU) GyrB ATPase inhibition, malachite green phosphate detection (E. coli GyrA + S. aureus GyrB). The format is biochemical. As to conditions: 10 compound concentrations; 500 μM ATP. The method, then:
Compounds were tested for inhibition of GyrB ATPase activity using an ammonium molybdate/malachite green-based phosphate detection assay (Lanzetta, P. A., L. J. Alvarez, P. S. Reinach, and O. A. Candia, 1979, 100: 95-97). Assays were performed in multiwell plates in 100 μl reactions containing: 50 mM Hepes buffer pH 7.5, 75 mM ammonium acetate, 8.0 mM magnesium chloride, 1.0 mM ethylenediaminetetraacetic acid, 5% glycerol, 2 mM 1,4-Dithio-DL-threitol, 400 nM bovine serum albumin, 5 μg/ml sheared salmon sperm DNA, 1.25 nM E. coli GyrA, 1.25 nM S. aureus GyrB, 500 μM ATP, and compound in dimethylsulfoxide. Reactions were quenched with 150 μl of ammonium molybdate/malachite green detection reagent containing 1.2 mM malachite green hydrochloride, 8.5 mM ammonium molybdate tetrahydrate, and 1 M hydrochloric acid. Plates were read in an absorbance plate reader at 650 nm and percent inhibition values were calculated using dimethylsulfoxide (2%)-containing reactions as 0% inhibition and novobiocin-containing (2 μM) reactions as 100% inhibition controls. Compound potency was based on IC50 measurements determined from reactions performed in the presence of 10 different compound concentrations.
As usually defined, the IC50 is the concentration that gives 50% inhibition. As for “1-Ethyl-3-(5′-(5-oxo-2,5-dihydro-1H-pyrazol-3-yl)-3,3′-bipyridin-6-yl)urea [Example 17]”, the IC50 came to 10 nM. Same read-out and setting: for `CCNC(=O)Nc1cc(-c2nc(C(F)(F)F)cs2)c(-c2cncc(-c3ncc[nH]3)c2)cn1` [Example 25, 1-(5′-(1H-Imidazol-2-yl)-4-(4-(trifluoromethyl)thiazol-2-yl)-3,3′-bipyridin-6-yl)-3-ethylurea] the value was 3 nM; for `CCNC(=O)Nc1cc(-c2nc(C(F)(F)F)cs2)c(-c2cccc(C#N)n2)cn1` [Example 32, 1-(6-cyano-4′-(4-(trifluoromethyl)thiazol-2-yl)-2,3′-bipyridin-6′-yl)-3-ethylurea], 62 nM.

The test is the same for the next values; noted with them: compound concentration of 1.0 μM unless otherwise noted; average value where assay was carried out more than once.
Consider “1-Ethyl-3-(5′-(5-oxo-2,5-dihydro-1H-pyrazol-3-yl)-3,3′-bipyridin-6-yl)urea [Example 17]”, for which the “S. aureus (SAU) GyrB ATPase % Inhibition” value turned out to be 102.2%.

Staying with this test, now noted: compound concentration of 1.0 μM unless otherwise noted; average value where assay was carried out more than once; read-out: S. aureus (SAU) GyrB ATPase % Inhibition.
In general, inhibition refers to the change of the read-out against control, counted positive when it falls. In the case of `CCNC(=O)Nc1cc(-c2nc(C(F)(F)F)cs2)c(-c2cncc(-c3nnc(C)o3)c2)cn1` [Example 1, 1-Ethyl-3-(5′-(5-methyl-1,3,4-oxadiazol-2-yl)-4-(4-(trifluoromethyl)thiazol-2-yl)-3,3′-bipyridin-6-yl)urea], the inhibition at 1 µM turned out to be 99%. Turning to `CCNC(=O)Nc1cc(-c2nc(C(F)(F)F)cs2)c(-c2cncc(-c3nnn[nH]3)c2)cn1` [Example 3, 1-(5′-(2H-tetrazol-5-yl)-4-(4-(trifluoromethyl)thiazol-2-yl)-3,3′-bipyridin-6-yl)-3-ethylurea], the inhibition at 1 µM was 88%. For the molecule `CCNC(=O)Nc1cc(-c2nc(C(F)(F)F)cs2)c(-c2cncc(-c3nnc(C(C)C)o3)c2)cn1` [Example 4], the inhibition at 1 µM stood at 99%. Regarding `CCNC(=O)Nc1cc(-c2nc(C(F)(F)F)cs2)c(-c2cncc(-c3nnc(C(C)C)s3)c2)cn1` [Example 5, 1-Ethyl-3-(5′-(5-isopropyl-1,3,4-thiadiazol-2-yl)-4-(4-(trifluoromethyl)thiazol-2-yl)-3,3′-bipyridin-6-yl)urea], the inhibition at 1 µM worked out at 112%. Still for that read-out and setting: with `CCNC(=O)Nc1cc(-c2nc(C(F)(F)F)cs2)c(-c2cncc(-c3n[nH]c(=O)o3)c2)cn1` [Example 6, 1-ethyl-3-(5′-(5-oxo-4,5-dihydro-1,3,4-oxadiazol-2-yl)-4-(4-(trifluoromethyl)thiazol-2-yl)-3,3′-bipyridin-6-yl)urea] the figure was 106%. `CCNC(=O)Nc1cc(-c2nc(C(F)(F)F)cs2)c(-c2cncc(-c3nc(C)n[nH]3)c2)cn1` [Example 7, 1-Ethyl-3-(5′-(3-methyl-1H-1,2,4-triazol-5-yl)-4-(4-(trifluoromethyl)thiazol-2-yl)-3,3′-bipyridin-6-yl)urea]: the inhibition at 1 µM was determined as 90%. As to `CCNC(=O)Nc1cc(-c2nc(C(F)(F)F)cs2)c(-c2cncc(-c3nc(C)no3)c2)cn1` [Example 8], the inhibition at 1 µM came to 95%.

Take `CCNC(=O)Nc1cc(-c2nc(C(F)(F)F)cs2)c(-c2ncc(-c3n[nH]c(=O)o3)s2)cn1` [Example 9, 1-ethyl-3-(5-(5-(5-oxo-4,5-dihydro-1,3,4-oxadiazol-2-yl)thiazol-2-yl)-4-(4-(trifluoromethyl)thiazol-2-yl)pyridin-2-yl)urea]: the inhibition at 1 µM was found to be 106%. In the case of `CCNC(=O)Nc1cc(-c2nc(-c3ccccn3)cs2)c(-c2cncc(-c3n[nH]c(=O)o3)c2)cn1` [Example 10, N-ethyl-N′-[5′-(5-oxo-4,5-dihydro-1,3,4-oxadiazol-2-yl)-4-(4-pyridin-2-yl-1,3-thiazol-2-yl)-3,3′-bipyridin-6-yl]urea], the inhibition at 1 µM was determined as 95%. Still for that read-out and setting: for `CCNC(=O)Nc1cc(-c2nc(-c3ccccc3)cs2)c(-c2cncc(-c3n[nH]c(=O)o3)c2)cn1` [Example 11, 1-ethyl-3-(5′-(5-oxo-4,5-dihydro-1,3,4-oxadiazol-2-yl)-4-(4-phenylthiazol-2-yl)-3,3′-bipyridin-6-yl)urea] the value was 107%; for `CCNC(=O)Nc1cc(-c2nc3ccccc3s2)c(-c2cncc(-c3n[nH]c(=O)o3)c2)cn1` [Example 12, 1-(4-(benzo[d]thiazol-2-yl)-5′-(5-oxo-4,5-dihydro-1,3,4-oxadiazol-2-yl)-3,3′-bipyridin-6-yl)-3-ethylurea], 108%. Consider `CCNC(=O)Nc1cc(-c2nc(C(F)(F)F)cs2)c(-c2ccc3nccnc3c2)cn1` [Example 13], for which the inhibition at 1 µM was 103%.

As for `CCNC(=O)Nc1cc(-c2nc(C(F)(F)F)cs2)c(-c2ccc[n+]([O-])c2)cn1` [Example 15, 6′-(3-Ethylureido)-4′-(4-(trifluoromethyl)thiazol-2-yl)-3,3′-bipyridine 1-oxide], the inhibition at 1 µM amounted to 93%. For `CCNC(=O)Nc1cc(-c2nc(C(F)(F)F)cs2)c(-c2nc3c(=O)[nH][nH]c(=O)c3s2)cn1` [Example 16, 1-{5-(4,7-dioxo-4,5,6,7-tetrahydro[1,3]thiazolo[4,5-d]pyridazin-2-yl)-4-[4-(trifluoromethyl)-1,3-thiazol-2-yl]pyridin-2-yl}-3-ethylurea], the inhibition at 1 µM amounted to 115%.

On to `CCNC(=O)Nc1cc(-c2nc(C(F)(F)F)cs2)c(-c2cncc(-c3noc(=S)[nH]3)c2)cn1` [Example 18, 1-Ethyl-3-(5′-(5-thioxo-4,5-dihydro-1,2,4-oxadiazol-3-yl)-4-(4-(trifluoromethyl)thiazol-2-yl)-3,3′-bipyridin-6-yl)urea], for which the inhibition at 1 µM was found to be 113%. Still for that read-out and setting: with `CCNC(=O)Nc1cc(-c2nc(C(F)(F)F)cs2)c(-c2cncc(C3=NOS(=O)N3)c2)cn1` (centres unmarked) [Example 20] the figure was 111%; with `CCNC(=O)Nc1cc(-c2nc(C(F)(F)F)cs2)c(-c2cncc(S(C)(=O)=O)c2)cn1` [Example 22, 1-Ethyl-3-(5′-(methylsulfonyl)-4-(4-(trifluoromethyl)thiazol-2-yl)-3,3′-bipyridin-6-yl)urea], 114%. Still for that read-out and setting: with `CCNC(=O)Nc1cc(-c2nc(C(F)(F)F)cs2)c(-c2cncc(S(N)(=O)=O)c2)cn1` [Example 23, 6′-(3-Ethylureido)-4′-(4-(trifluoromethyl)thiazol-2-yl)-3,3′-bipyridine-5-sulfonamide] the figure was 110%; with `CCNC(=O)Nc1cc(-c2nc(C(F)(F)F)cs2)c(-c2cncc(-c3cnn(C)c3)c2)cn1` [Example 24, 1-Ethyl-3-(5′-(1-methyl-1H-pyrazol-4-yl)-4-(4-(trifluoromethyl)thiazol-2-yl)-3,3′-bipyridin-6-yl)urea], 109%. Still for that read-out and setting: for `CCNC(=O)Nc1cc(-c2nc(C(F)(F)F)cs2)c(-c2cncc(-c3ncc[nH]3)c2)cn1` [Example 25, 1-(5′-(1H-Imidazol-2-yl)-4-(4-(trifluoromethyl)thiazol-2-yl)-3,3′-bipyridin-6-yl)-3-ethylurea] the value was 100%; for `CCNC(=O)Nc1cc(-c2nc(C(F)(F)F)cs2)c(-c2cncc(C3=NCCO3)c2)cn1` [Example 26, 1-(5′-(4,5-Dihydrooxazol-2-yl)-4-(4-(trifluoromethyl)thiazol-2-yl)-3,3′-bipyridin-6-yl)-3-ethylurea], 105%. For the molecule `CCNC(=O)Nc1cc(-c2nc(-c3cnn(C)c3)cs2)c(-c2cncc(-c3n[nH]c(=O)o3)c2)cn1` [Example 27, 1-ethyl-3-(4-(4-(1-methyl-1H-pyrazol-4-yl)thiazol-2-yl)-5′-(5-oxo-4,5-dihydro-1,3,4-oxadiazol-2-yl)-3,3′-bipyridin-6-yl)urea], the inhibition at 1 µM was determined as 109%. Turning to `CCNC(=O)Nc1cc(-c2ccnn2C)c(-c2cncc(-c3n[nH]c(=O)o3)c2)cn1` [Example 28, 1-ethyl-3-(4-(1-methyl-1H-pyrazol-5-yl)-5′-(5-oxo-4,5-dihydro-1,3,4-oxadiazol-2-yl)-3,3′-bipyridin-6-yl)urea], the inhibition at 1 µM turned out to be 70%. `CCNC(=O)Nc1cc(-c2nc(C(F)(F)F)cs2)c(-c2cccc(-n3cccn3)n2)cn1` [Example 29]: the inhibition at 1 µM worked out at 114%.

In the case of `CCNC(=O)Nc1cc(-c2nc(C(F)(F)F)cs2)c(-c2csc(N3CCOCC3)n2)cn1` [Example 30, 1-ethyl-3-(5-(2-morpholinothiazol-4-yl)-4-(4-(trifluoromethyl)thiazol-2-yl)pyridin-2-yl)urea], the inhibition at 1 µM is 105%. Consider `CCNC(=O)Nc1cc(-c2nc(C(F)(F)F)cs2)c(-c2cncc(C#N)n2)cn1` [Example 31, 1-(5-(6-cyanopyrazin-2-yl)-4-(4-(trifluoromethyl)thiazol-2-yl)pyridin-2-yl)-3-ethylurea], for which the inhibition at 1 µM came to 113%. With `CCNC(=O)Nc1cc(-c2nc(C(F)(F)F)cs2)c(-c2cccc(C#N)n2)cn1` [Example 32, 1-(6-cyano-4′-(4-(trifluoromethyl)thiazol-2-yl)-2,3′-bipyridin-6′-yl)-3-ethylurea], the inhibition at 1 µM worked out at 106%. On the same count and under the same terms, for `CCNC(=O)Nc1cc(-c2nc(C(F)(F)F)cs2)c(-c2ccnc(-c3n[nH]c(=O)o3)c2)cn1` [Example 33, 1-ethyl-3-(2′-(5-oxo-4,5-dihydro-1,3,4-oxadiazol-2-yl)-4-(4-(trifluoromethyl)thiazol-2-yl)-3,4′-bipyridin-6-yl)urea] the value was 117%; for `CCNC(=O)Nc1cc(-c2nc(C(F)(F)F)cs2)c(-c2nc(C)cc(-c3n[nH]c(=O)o3)n2)cn1` [Example 34, 1-ethyl-3-(5-(4-methyl-6-(5-oxo-4,5-dihydro-1,3,4-oxadiazol-2-yl)pyrimidin-2-yl)-4-(4-(trifluoromethyl)thiazol-2-yl)pyridin-2-yl)urea], 93%.

The test is the same for the next values; noted with them: read-out: S. aureus (SAU) GyrB ATPase % Inhibition.
On to `CCNC(=O)Nc1cc(-c2nc(C(F)(F)F)cs2)c(-c2cncc(C#N)c2)cn1` [Example 2, 1-(5′-cyano-4-(4-(trifluoromethyl)thiazol-2-yl)-3,3′-bipyridin-6-yl)-3-ethylurea], for which the inhibition at 1 µM amounted to 88%. Same read-out and setting: for `CCNC(=O)Nc1cc(-c2nc(C(F)(F)F)cs2)c(-c2cncc(-c3noc(=O)[nH]3)c2)cn1` [Example 19, 1-Ethyl-3-(5′-(5-oxo-4,5-dihydro-1,2,4-oxadiazol-3-yl)-4-(4-(trifluoromethyl)thiazol-2-yl)-3,3′-bipyridin-6-yl)urea] the value was 110%.
